{"source": "patent US11986477B2", "about": "“Drug combination and use for treating tumors” (INXMED (NANJING) CO., LTD., priority 2022, dated 2024)", "key": {"lung cancer KPL cells": {"tested_on": "lung cancer KPL cells", "assay": "Lung cancer KPL cells incubated with drug for 48 hours, observed under microscope", "assay_type": "cell-based", "details": "48 h incubation; IN10018 10 μM, AZD9291 10 μM, Almonertinib 4.7 μM, Alflutinib 4.7 μM, single or combined"}, "[1]": {"tested_on": "human non-small cell lung cancer HCC827 cells", "assay": "In vivo antitumor efficacy, BALB/c-nude mouse subcutaneous xenograft tumor model of HCC827 cells", "details": "for tumor growth inhibition compared with the blank control group / TGI / Tumor volume on day 32 / Tumor volume on day 37: AZD9291 3 mg/kg, IN10018 25 mg/kg, combination 3+25 mg/kg; for tumor growth inhibition compared with the blank control group: statistical difference from control; for Tumor volume on day 0: baseline at grouping, n=5; for Tumor volume on day 0 / Tumor volume on day 32 / Tumor volume on day 37: mean ± SD; for TGI: day 32, vs control group; for TGI / Tumor volume on day 32 / Tumor volume on day 37: PO QD; for Tumor volume on day 32: day 32 after administration by groups; for Tumor volume on day 37: day 37 after administration by groups", "protocol": "5% CO2 incubator. The cells were passaged by routine digestion with trypsin-EDTA two to three times a week. When the cells were in the exponential growth phase with 80%-90% saturation, the cells were harvested, counted and inoculated. 0.1 mL of a cell suspension containing 5×10^6 cells was inoculated subcutaneously into the right back of each mouse.\nThe experiment criteria was to investigate whether the tumor growth was inhibited, delayed or cured. Tumor diameter was measured three times a week using vernier calipers. Tumor volume was calculated according to the following formula: V=0.5×a×b^2, where a and b indicated the long diameter and short diameter of the tumor, respectively.\nThe tumor suppressive efficacy of the compounds was evaluated by TGI (%), which reflects the tumor growth inhibition rate.\nStatistical analysis was performed based on tumor volume at the end of the trial using Prism Graphpad software. Comparisons among multiple groups were analyzed using Two-way ANOVA, Fisher's LSD test method, and P<0.05 was considered a significant difference. Comparisons between the two groups were analyzed using the t-test, Mann Whitney test method test, and P<0.05 was considered a significant difference."}, "[2]": {"tested_on": "mouse colon cancer CT-26 cells", "assay": "In vivo antitumor efficacy, subcutaneous allograft tumor model of colon cancer CT-26 cells in BALB/c mice", "details": "for Tumor volume on day 0: baseline at grouping, mean ± standard error, n=6; for TGI: day 15, vs control group; for TGI / Tumor volume on day 15: IN10018 25 mg/kg, combination 20+25 mg/kg, p.o. QD; for Tumor volume on day 15: day 15 after administration by groups", "protocol": "[…] incubator. The cells were passaged by routine digestion with trypsin-EDTA two to three times a week. When the cells were in the exponential growth phase with […] saturation, the cells were harvested, counted and inoculated.\n0.1 mL of a cell suspension containing 3×10^5 cells was inoculated subcutaneously into the right back of each mouse. When the tumor volume reached ˜59 mm^3 (on day 12 after cell inoculation), the mice were randomized into groups for administration according to the tumor volume, and the grouping information is shown in Table 2.\nThe tumor diameter was measured with a vernier caliper three times a week. The tumor volume was calculated by the formula: V=0.5×a×b^2, where a and b indicated the long and short diameter of the tumor, respectively.\nStatistical analysis was performed based on tumor volume and tumor weight at the end of the trial using Prism Graphpad software. Comparisons among multiple groups were analyzed using Two-way ANOVA, Fisher's LSD test method. P<0.05 was considered a significant difference."}, "[3]": {"assay": "Body weight and survival of HCC827 tumor-bearing BALB/c-nude mice during dosing", "assay_type": "in vivo", "protocol": "The use and welfare of laboratory animals were in accordance with the AAALAC regulations. Animals were monitored daily for health and death. Routine examinations included observation of tumor growth and the effects of drug treatment on the animals' daily behavior such as behavioral activities, food and water intake (visual inspection only), weight changes, appearance signs or other abnormalities. Animal deaths and side effects in each group were recorded based on the number of animals in each group.\nThe assay was carried out according to the dosing regimen, during which the animals were observed daily for feeding and drinking, and their body weights were recorded three times a week."}}, "note": "Where “and” joins values, the source holds several entries; their conditions need not be identical. Identical values can stand only once."}
{"compound": "C=CC(=O)Nc1cc(Nc2nccc(-c3cn(C4CC4)c4ccccc34)n2)c(OC)cc1N(C)CCN(C)C", "note": "[Almonertinib]", "values": [{"measurement": "cell status observed under microscope", "setting": "lung cancer KPL cells", "value": "poor cell status"}]}
{"compound": "C=CC(=O)Nc1cc(Nc2nccc(-c3cn(C)c4ccccc34)n2)c(OCC(F)(F)F)nc1N(C)CCN(C)C", "note": "[Alflutinib]", "values": [{"measurement": "cell status observed under microscope", "setting": "lung cancer KPL cells", "value": "poor cell status"}]}
{"compound": "COc1cc(C(=O)NC2CCN(C)CC2)c(F)cc1Nc1ncc(C(F)(F)F)c(Oc2cccc3c2C(=O)N(C)C3)n1", "note": "[IN10018]", "values": [{"measurement": "tumor growth inhibition compared with the blank control group", "setting": "[1]", "value": "obvious tumor growth inhibition"}, {"measurement": "Tumor volume on day 0", "setting": "[1]", "value": "147.7 ± 56.3", "unit": "mm^3"}, {"measurement": "TGI", "setting": "[1]", "value": 104.1, "unit": "%"}, {"measurement": "Tumor volume on day 32", "setting": "[1]", "value": "79.2±51.8", "unit": "mm^3"}, {"measurement": "Tumor volume on day 37", "setting": "[1]", "value": "69.6±46.6", "unit": "mm^3"}, {"measurement": "cell status observed under microscope", "setting": "lung cancer KPL cells", "value": "better cell status"}, {"measurement": "Tumor volume on day 0", "setting": "[2]", "value": "39.2 ± 17.9", "unit": "mm^3"}, {"measurement": "TGI", "setting": "[2]; AZD9291 20 mg/kg", "value": "−14.5", "unit": "%"}, {"measurement": "Tumor volume on day 15", "setting": "[2]; AZD9291 20 mg/kg", "value": "1766.9±732.5", "unit": "mm^3"}]}
{"compound": "C=CC(=O)Nc1cc(Nc2nccc(-c3cn(C)c4ccccc34)n2)c(OC)cc1N(C)CCN(C)C", "note": "[AZD9291, Osimertinib]", "values": [{"measurement": "Body weight on day 0", "setting": "[3]; baseline, day of administration by groups, mean ± SD", "value": "19.9 g and 19.9 ± 0.9 g"}, {"measurement": "Body weight on day 37", "setting": "[3]; day 37, AZD9291 3 mg/kg, IN10018 25 mg/kg, combination 3+25 mg/kg PO QD, mean ± SD", "value": "19.4 g and 19.4 ± 1.4 g"}, {"measurement": "Rate of change in body weight", "setting": "[3]; day 37 vs day 0, AZD9291 3 mg/kg, IN10018 25 mg/kg, combination 3+25 mg/kg", "value": "−2.2", "unit": "%"}, {"measurement": "Animal Survival", "setting": "[3]; number of animals surviving on day 0/after administration, AZD9291 3 mg/kg, IN10018 25 mg/kg, combination 3+25 mg/kg", "value": "5/5"}, {"measurement": "tumor growth inhibition compared with the blank control group", "setting": "[1]", "value": "obvious tumor growth inhibition"}, {"measurement": "Tumor volume on day 0", "setting": "[1]", "value": "148.6 ± 59.6", "unit": "mm^3"}, {"measurement": "TGI", "setting": "[1]", "value": 107.7, "unit": "%"}, {"measurement": "Tumor volume on day 32", "setting": "[1]", "value": "20.3±4.7", "unit": "mm^3"}, {"measurement": "Tumor volume on day 37", "setting": "[1]", "value": "17.0±6.7", "unit": "mm^3"}, {"measurement": "cell status observed under microscope", "setting": "lung cancer KPL cells", "value": "poor cell status"}, {"measurement": "tumor growth inhibition compared with the blank control group", "setting": "[2]; AZD9291 20 mg/kg, AZD9291+IN10018 20+25 mg/kg, statistical difference from control", "value": "obvious tumor growth inhibition"}, {"measurement": "Tumor volume on day 0", "setting": "[2]", "value": "37.9 ± 12.9", "unit": "mm^3"}, {"measurement": "TGI", "setting": "[2]; AZD9291 20 mg/kg", "value": 33.2, "unit": "%"}, {"measurement": "Tumor volume on day 15", "setting": "[2]; AZD9291 20 mg/kg", "value": "1046.3±407.8", "unit": "mm^3"}]}
